According to patent publication US9427415B2, “Methods and compositions for modifying sensorial perception” (The Procter & Gamble Company, priority 2014, dated 2016):
Like-named read-outs stand apart in the source and are kept apart here.

Columns and labels:
[1] = target: T1, human TRPA1 (Homo sapiens, UniProt O75762, K186N/R3C/R58T); test: Intracellular calcium (Fluo-4, FLIPR) activation of TRPA1 cells by GRAS compounds; type: cell-based;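 also: TRPA1-expressing cells, fluorescence read on a FLIPR Tetra (ex 488 nm, em 514 nm) every 2 s for 10 min after compound addition, baseline subtracted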
T1 construct: expressed in transfected cells; pcDNA3 control cells

[2] = tested on: TRPA1V1; test: Intracellular calcium (Fluo-4, FLIPR) activation of TRPA1V1 cells (co-expressing TRPA1 and TRPV1) by GRAS compounds; type: cell-based, human; conditions: relative to AITC 30 μM;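 also: HEK293 cells co-expressing TRPA1 and TRPV1, fluorescence read at 488/514 nm after baseline subtraction, recorded every 2 s over 10 min, ionomycin 10 µM and buffer as controls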
Protocol: TRPV1, TRPA1, TRPA1V1 and pcDNA3 cells were grown in 15 mL growth medium [high glucose DMEM (Dulbecco's modification of Eagle's medium) supplemented with 10% FBS (fetal bovine serum), 100 μg/mL penicillin/streptomycin, 100 μg/mL G418] in a 75 cm^2 flask for 3 days in a mammalian cell culture incubator at 33° C. and 5% CO2. TRP Cells were detached with 8 mL of PBS (without calcium or magnesium); for pcDNA3 cells, trypsin was used for releasing the cells. The detached cells were spun at low speed (800-900 rpm for 3 min) to pellet the cells. […] The cells were washed once with 45 mL assay buffer (1×HBSS, 20 mM HEPES) by low speed centrifugation (800-900 rpm for 3 min) and resuspended in 11 mL of the assay buffer in a reagent reservoir. […] The plates were set at room temperature for 30 min. The plates were read in a FLIPR^TETRA instrument (Molecular Devices, Sunnyvale, Calif.) at λex 488 nm and λem 514 nm to record baseline fluorescence following which 20 μL of test material at 1 mM or 100 μM final concentration for pure compounds in a GRAS library or 0.004% for extracts. For agonists, capsaicin 350 nM and AITC at 30 μM; and for controls, ionomycin 10 μM and buffer alone) was added to each well using the dispenser provided in the FLIPR. The data point was recorded every 2 seconds for a total of 10 min.
Average value for activation from three independent assay plates are presented as % of agonist value (AITC, 30 μM for TRPA1 and capsaicin, 350 nM for TRPV1. For TRPA1V1, we used AITC, 30 μM or capsaicin, 350 nM depending on if the compound is an A1 agonist or a V1 agonist. For compounds that activated both A1 and V1, we used AITC for normalization). Variation among triplicates was within 10% of each other. Assayed at 1 mM for pure compounds and 0.004% for extracts.

[3] = Table 1(d), 1 mM, relative to AITC 30 μM
[4] = Table 1(c), 1 mM, relative to AITC 30 μM
[5] = Table 1(c), 1 mM, relative to AITC 30 μM, read-out: A1 activation, % of agonist value
[6] = Table 1(c), 100 μM (*), relative to AITC 30 μM
[7] = read-out: A1 activation, % of agonist value

T1 sequence (O75762 whole entry R3C/R58T/K186N): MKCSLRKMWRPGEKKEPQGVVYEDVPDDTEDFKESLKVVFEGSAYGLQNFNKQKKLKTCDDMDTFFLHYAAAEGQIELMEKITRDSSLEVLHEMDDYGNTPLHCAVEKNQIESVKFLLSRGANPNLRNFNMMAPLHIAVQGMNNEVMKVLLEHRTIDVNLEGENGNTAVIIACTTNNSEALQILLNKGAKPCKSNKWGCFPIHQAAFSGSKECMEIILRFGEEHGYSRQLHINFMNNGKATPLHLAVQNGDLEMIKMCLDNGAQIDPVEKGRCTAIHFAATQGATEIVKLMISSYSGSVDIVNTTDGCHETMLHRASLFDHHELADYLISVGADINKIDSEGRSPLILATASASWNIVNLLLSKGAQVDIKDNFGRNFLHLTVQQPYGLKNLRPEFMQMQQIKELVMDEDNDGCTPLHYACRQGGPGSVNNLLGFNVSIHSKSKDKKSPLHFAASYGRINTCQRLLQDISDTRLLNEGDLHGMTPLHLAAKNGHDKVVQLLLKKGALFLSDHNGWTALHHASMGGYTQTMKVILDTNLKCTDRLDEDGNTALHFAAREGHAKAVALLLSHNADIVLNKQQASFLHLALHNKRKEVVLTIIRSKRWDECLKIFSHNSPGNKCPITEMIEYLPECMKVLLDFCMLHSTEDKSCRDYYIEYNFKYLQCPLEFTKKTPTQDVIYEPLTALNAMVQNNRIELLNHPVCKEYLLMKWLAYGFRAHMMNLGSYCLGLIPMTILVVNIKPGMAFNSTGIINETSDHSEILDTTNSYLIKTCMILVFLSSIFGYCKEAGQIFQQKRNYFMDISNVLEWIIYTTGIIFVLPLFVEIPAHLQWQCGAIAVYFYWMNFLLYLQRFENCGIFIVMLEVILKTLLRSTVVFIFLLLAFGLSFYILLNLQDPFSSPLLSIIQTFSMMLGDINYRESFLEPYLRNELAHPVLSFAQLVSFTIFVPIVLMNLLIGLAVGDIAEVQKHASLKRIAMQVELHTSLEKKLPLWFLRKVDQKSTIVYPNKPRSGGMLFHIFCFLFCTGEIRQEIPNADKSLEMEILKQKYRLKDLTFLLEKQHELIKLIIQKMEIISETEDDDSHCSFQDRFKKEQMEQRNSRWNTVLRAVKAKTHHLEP

Compound | A1V1 activation, % of agonist value ([2]; Table 1(c), 1 mM) [%] | activation at 1000 µM [1, 5] [%] | also measured
CCC(=O)C=CC1C(C)=CCCC1(C)C (stereo not shown) | – | – | A1 activation, % of agonist value [1, 3]: 97.3%; A1V1 activation, % of agonist value ([2]; Table 1(d), 1 mM): 69.7%
2-mercaptopropanoate | – | – | A1 activation, % of agonist value [1, 3]: 101.5%; A1V1 activation, % of agonist value ([2]; Table 1(d), 1 mM): 54.3%
3-mercaptopropanoate | 41.8 | – | A1 activation, % of agonist value [1, 4]: 42.7%
CC(=O)/C=C/C1C(C)=CCCC1(C)C (racemic) [(+/−)-Alpha-Ionone] | 64.21 | – | A1 activation, % of agonist value [1, 4]: 64.62%
CC(C)[C@@H]1CC[C@@H](C)C[C@H]1O (racemic) [DL-Menthol] | 43.05 | – | A1 activation, % of agonist value [1, 4]: 54.02%
C=C(C)C1CC=C(C)C(OC(C)=O)C1 (single isomer, unassigned; (-)) [(−)-Carvyl acetate] | 37 | – | A1 activation, % of agonist value [1, 4]: 31.2%
Cc1c(C(=O)O)c(O)cc2c1C(=O)c1c(O)c(C3O[C@H](CO)[C@@H](O)[C@H](O)[C@H]3O)c(O)c(O)c1C2=O (stereo in doubt) [Carmine] | 61.54 | 66.2 | –
CC(S)CS (stereo not shown) [1,2-Propanedithiol] | 73.3 | – | A1 activation, % of agonist value [1, 6]: 65.8%; A1 activation, % of agonist value [1, 4]: 66%; A1V1 activation, % of agonist value ([2]; Table 1(c), 100 μM (*)): 65.4%
SCCCCCCS [1,6-Hexanedithiol] | 54 | 68.6 | –
O=CC1=CCCCC1 [1-Cyclohexene-1-carboxaldehyde] | 48.37 | 45.9 | –
C/C=C(\C)C(=O)OC(CC)CCCCC (stereo not shown) [1-Ethylhexyl Tiglate] | – | – | activation at 1000 µM ([1]; Table 1(d), 1 mM, relative to AITC 30 μM, read-out: A1 activation, % of agonist value): 50.6%; A1V1 activation, % of agonist value ([2]; Table 1(d), 1 mM): 31.87%
Cn1cccc1C=O [1-Methylpyrrole-2-carboxaldehyde] | 87.70 | 81.1 | –
CCCCCC=CC=CCO [2,4-Decadienol] | 52.2 | 48.6 | –
Cc1ccc(C=O)c(C)c1 [2,4-Dimethylbenzaldehyde] | 102.8 | 107 | –
CC=CC=CCO [2,4-Hexadienol] | 78.68 | 78 | –
CC=CC=CCOC(=O)CC [2,4-Hexadienyl propionate] | 91.20 | 93.2 | –
CCCC=CC=CC=O [2,4-Octadienal] | 82.7 | 80.9 | –
CC1(O)CSC(C)(O)CS1 (stereo not shown) [2,5-dimethyl-1,4-dithilane-2,5-diol] | – | – | A1 activation, % of agonist value [1, 6]: 77.5%; A1V1 activation, % of agonist value ([2]; Table 1(c), 100 μM (*)): 87.2%
Cc1cccc(C)c1S [2,6-Dimethylthiophenol] | 85.5 | 84.4 | –
CC/C=C\CC/C=C/C(OCC)OCC [2,6-Nonadiene, 1,1-diethoxy-, (E,Z)-] | 74.31 | 89.3 | –
CC(=O)c1ccc2ccccc2c1 [2-Acetylnaphthalene] | 69.41 | 60.3 | –
O=C(CCl)c1ccccc1 [2-Chloroacetophenone] | 103 | – | activation at 100 µM [1, 7]: 93.6%; activation at 1000 µM [1, 7]: 91.4%; A1V1 activation, % of agonist value ([2]; Table 1(c), 100 μM (*)): 88.8%
Ammonium carbonate | 58.42 | – | –
